Where two headings read alike, the source gives them in different places.
How the values were obtained:
platelet aggregation [1] = assay: Impedance platelet aggregometry in whole blood spiked with aspirin +/- Antibody 1; type: cell-based; conditions: Homo sapiens, aspirin 1 mg/mL
Experimental: Two studies were conducted concurrently. Blood specimens were obtained in EDTA and citrate tubes (6 healthy donors for each study). In the first study, whole blood was spiked with vehicle, aspirin (1 mg/mL), or aspirin (1 mg/mL)+Antibody 1 (125, 250, and 500 nM). Platelet aggregation was measured by impedance platelet aggregometry following induction with collagen (3.2 μg/mL) or arachidonic acid (0.5 mM) (Multiplate® analyzer, COLtest and ASPItest reagents; Roche Diagnostics International Ltd, Rotkreuz, Switzerland).

platelet aggregation [2] = assay: Impedance platelet aggregometry in whole blood spiked with ticagrelor +/- Antibody 1; type: cell-based, human; conditions: ticagrelor 3 μM
Experimental: In the second study, whole blood was spiked with vehicle, ticagrelor (3 μM), or ticagrelor (3 μM)+Antibody 1 (125, 250, and 500 nM). Platelet aggregation was measured with the same methodology following induction by ADP (6.4 μM) or thrombin receptor activating peptide-6 (TRAP-6, 32 μM).

platelet aggregation [3] = assay: Whole blood platelet aggregation, multiplate impedance aggregometer (Example 1); type: cell-based, human; conditions: collagen 1 μg/mL, Antibody 1 250, 500 or 1000 nM, abciximab 50 nM, vs vehicle
Experimental: (§1) Whole blood was obtained in EDTA and citrate tubes (6 healthy donors). Specimens were spiked with vehicle, Antibody 1 (250, 500, or 1000 nM), or abciximab (50 nM). Platelet aggregation was recorded following induction using collagen (1 μg/mL) or TRAP-6 (8 μM) using a multiplate impedance aggregometer. The area under the curve (AUC) for platelet aggregation was determined in arbitrary aggregation*time (AU*min). Thrombin generation was also measured at the above Antibody 1 and abciximab concentrations in platelet-rich plasma using Thrombinoscope CAT (Calibrated Automated Thrombogram; Stago CH S.A. and tissue factor reagent (1 μM); fluorescence was measured by an automated plate reader fluorometer.

thrombin generation = assay: Thrombin generation in platelet-rich plasma, Calibrated Automated Thrombogram; type: biochemical, human; conditions: tissue factor reagent, abciximab 50 nM
Experimental: as §1

Molecule `CC(=O)Oc1ccccc1C(=O)O` [aspirin] has an inhibition at 1000 µg/mL (platelet aggregation [1]; arachidonic acid 0.5 mM, p<0.05, read-out: inhibition of platelet aggregation induced with arachidonic acid) of 71% and an inhibition at 1000 µg/mL (platelet aggregation [1]; collagen 3.2 μg/mL, p<0.05, read-out: inhibition of platelet aggregation induced with collagen) of 60%.

For `CCCSc1nc(N[C@@H]2C[C@H]2c2ccc(F)c(F)c2)c2nnn([C@@H]3C[C@H](OCCO)[C@@H](O)[C@H]3O)c2n1` [ticagrelor], the inhibition at 3 µM (platelet aggregation [2]; Homo sapiens, Platelet, ADP 6.4 μM, p<0.05, read-out: inhibition of platelet aggregation induced with ADP) was 54% and the “inhibition of platelet aggregation induced with TRAP-6” value (platelet aggregation [2]; TRAP-6 32 μM, p<0.05) was 31%.

B1: abciximab (antibody, chains of the INN, looked up, V domains shown)
VH: EVQLQQSGTVLARPGASVKMSCEASGYTFTNYWMHWVKQRPGQGLEWIGAIYPGNSDTSYIQKFKGKAKLTAVTSTTSVYMELSSLTNEDSAVYYCTLYDGYYVFAYWGQGTLVTVSA
VL: EIVLTQSPVTLSVTPGDSVSLSCRASRDISNNLHWFQQTSHESPRLLIKYASQSMSGIPSRFSGSGSGTDFTLSINSVETEDFGMYFCQQTNSWPYTFGGGTKLEIK
modifications: Fab
In the case of B1, the “platelet aggregation induced by collagen” value (platelet aggregation [3]) is reported as “significant reductions” and the “effect on thrombin generation” value (thrombin generation) is reported as “no effect”.

Reference: patent publication US20260232796A1, “COMBINATION THERAPIES WITH AN ANTI-FACTOR XI/FACTOR XIA ANTIBODY” (Anthos Therapeutics, Inc., priority 2022, published 2026)
